Entries after “also recorded” stand apart in the source; their conditions may differ.
Tests used:
[1] = system: trypsin, pancreatin, pepsin and various esterases; assay: Enzymatic tampering studies; assay type: in vitro ADME
Excerpt: Without being bound by theory, it is believed that metabolism of Bz-HC after oral administration that allows for the rapid release of therapeutic amounts of hydrocodone requires the combinations and processes of the esterases and other enzymes functioning in the living enterocytes and liver tissue inside the body.

[2] = Oral PK profiles in rats (plasma hydrocodone, hydromorphone, intact Bz-HC by LC/MS/MS); conditions: equivalent to 2 mg/kg hydrocodone freebase
[3] = Example 22: intranasal crushed / oral intact tablets human PK study vs HB/APAP
[4] = Oral PK profiles in dogs; conditions: equivalent to 2 mg/kg hydrocodone freebase
[5] = Example 20: intact Bz-HC in plasma samples of Examples 13-18; assay type: in vivo; conditions: humans, oral, LLOQ
Protocol: Validated LC/MS/MS methods were used to measure plasma concentrations of Bz-HC, hydrocodone, hydromorphone and acetaminophen (APAP). The lower limits of quantitation (LLOQ) for Bz-HC, hydrocodone, hydromorphone, and APAP in plasma were 25 pg/mL, 250 pg/mL, 25 pg/mL, and 0.025 μg/mL, respectively for examples 14-18. For example 13, the lower limits of quantitation (LLOQ) for Bz-HC, hydrocodone, hydromorphone were 0.5 ng/mL.
LC/MS/MS analyses were performed in order to attempt to measure intact Bz-HC concentrations in the plasma samples obtained from any of the blood samples described above in Examples 13-18. However, all plasma concentrations of intact Bz-HC were <LLOQ (25 pg/mL) and no PK analyses could be performed

[6] = Water solubility / feasibility of intranasal or intravenous dosing
[7] = Tamper resistance: solvent hydrolysis studies; assay type: physicochemical
Protocol: In order to further evaluate the tamper-resistant properties of Bz-HC, a wide variety of Bz-HC solvent extraction studies were performed. […] The prodrug is not cleaved and no hydrocodone becomes available. […] We also conducted a wide variety of Bz-HC solvent hydrolysis studies in our own laboratories.

[8] = human, plasma, inhaled or intranasal, 13.34 mg

For COc1ccc2c3c1OC1C(OC(=O)c4ccccc4)=CCC4C(C2)N(C)CCC314 (stereo not drawn) [Bz-HC, benzoate-hydrocodone], the “release of hydrocodone from the prodrug by enzymes (in words)” value [1] was “no significant release of hydrocodone”, the “AUC for intact Bz-HC as % of the AUC value for hydrocodone” value [2] was “approximately 10%” and the “AUC for intact Bz-HC as % of the AUC value for hydromorphone” value [2] was roughly 3%. It also gave a half-life ([3]; human, plasma, inhaled or intranasal) of 66.6 min, an AUC(0-inf) [3, 8] of 0.0133 ± 0.00886 µg·h/mL and an AUC(0-t) [3, 8] of 0.0132 ± 0.00886 µg·h/mL. For the same compound, the Tmax [3, 8] was 27 min, the “Tlast of Bz-HC (time of the last quantifiable concentration), median” value ([3]; intranasal crushed Bz-HC.HCl/APAP 13.34/650 mg) was 6.22 h and the “AUC value for intact Bz-HC as % of the AUC value for hydrocodone” value [4] was “approximately 10%”. For the same compound, the “plasma concentrations of intact Bz-HC” value [5] was less than 0.025 ng/mL, the “solubility at physiological pH (in words)” value ([6]; human physiological pH of 7.4 (blood)) was “highly insoluble” and the “water solubility (in words)” value ([6]; water) was “hydrophobic; also recorded: poor water solubility”. The “%-release of Hydrocodone” value ([7]; Acetone, ambient temperature, 0.5 h) was 0%, the “%-release of Hydrocodone” value ([7]; Acetone, ambient temperature, 1 h) was 0% and the “%-release of Hydrocodone” value ([7]; Acetone, ambient temperature, 4 h) was 0%. The “%-release of Hydrocodone” value ([7]; Acetone, at boiling point, 0.5 h) was 0%, the “%-release of Hydrocodone” value ([7]; Acetone, at boiling point, 1 h) was 0% and the “%-release of Hydrocodone” value ([7]; Acetone, at boiling point, 4 h) was 0%. For the same compound, the “%-release of Hydrocodone” value ([7]; Ethanol, ambient temperature, 0.5 h) was 0%, the “%-release of Hydrocodone” value ([7]; Ethanol, ambient temperature, 1 h) was 0% and the “%-release of Hydrocodone” value ([7]; Ethanol, ambient temperature, 4 h) was 0%. The “%-release of Hydrocodone” value ([7]; Ethanol, at boiling point, 0.5 h) was 0%, the “%-release of Hydrocodone” value ([7]; Ethanol, at boiling point, 1 h) was 0% and the “%-release of Hydrocodone” value ([7]; Ethanol, at boiling point, 4 h) was 0%. For the same compound, the “%-release of Hydrocodone” value ([7]; Ethyl acetate, ambient temperature, 0.5 h) was 0%, the “%-release of Hydrocodone” value ([7]; Ethyl acetate, ambient temperature, 1 h) was 0% and the “%-release of Hydrocodone” value ([7]; Ethyl acetate, ambient temperature, 4 h) was 0%. For the same compound, the “%-release of Hydrocodone” value ([7]; Ethyl acetate, at boiling point, 0.5 h) was 0%, the “%-release of Hydrocodone” value ([7]; Ethyl acetate, at boiling point, 1 h) was 0% and the “%-release of Hydrocodone” value ([7]; Ethyl acetate, at boiling point, 4 h) was 0%. The “%-release of Hydrocodone” value ([7]; Methanol, ambient temperature, 0.5 h) was 0%, the “%-release of Hydrocodone” value ([7]; Methanol, ambient temperature, 1 h) was 0% and the “%-release of Hydrocodone” value ([7]; Methanol, ambient temperature, 4 h) was 0%. For the same compound, the “%-release of Hydrocodone” value ([7]; Methanol, at boiling point, 0.5 h) was 0%, the “%-release of Hydrocodone” value ([7]; Methanol, at boiling point, 1 h) was 0% and the “%-release of Hydrocodone” value ([7]; Methanol, at boiling point, 4 h) was 0%. For the same compound, the “%-release of Hydrocodone” value ([7]; Methyl ethyl ketone, ambient temperature, 0.5 h) was 0%, the “%-release of Hydrocodone” value ([7]; Methyl ethyl ketone, ambient temperature, 1 h) was 0% and the “%-release of Hydrocodone” value ([7]; Methyl ethyl ketone, ambient temperature, 4 h) was 0%. For the same compound, the “%-release of Hydrocodone” value ([7]; Methyl ethyl ketone, at boiling point, 0.5 h) was 0%, the “%-release of Hydrocodone” value ([7]; Methyl ethyl ketone, at boiling point, 1 h) was 0% and the “%-release of Hydrocodone” value ([7]; Methyl ethyl ketone, at boiling point, 4 h) was 0%. For the same compound, the “%-release of Hydrocodone” value ([7]; Octane, ambient temperature, 0.5 h) was 0%, the “%-release of Hydrocodone” value ([7]; Octane, ambient temperature, 1 h) was 0% and the “%-release of Hydrocodone” value ([7]; Octane, ambient temperature, 4 h) was 0%. The “%-release of Hydrocodone” value ([7]; Octane, at boiling point, 0.5 h) was 0%, the “%-release of Hydrocodone” value ([7]; Octane, at boiling point, 1 h) was 0% and the “%-release of Hydrocodone” value ([7]; Octane, at boiling point, 4 h) was 0%. For the same compound, the “%-release of Hydrocodone” value ([7]; Petrol ether, ambient temperature, 0.5 h) was 0%, the “%-release of Hydrocodone” value ([7]; Petrol ether, ambient temperature, 1 h) was 0% and the “%-release of Hydrocodone” value ([7]; Petrol ether, ambient temperature, 4 h) was 0%. For the same compound, the “%-release of Hydrocodone” value ([7]; Petrol ether, at boiling point, 0.5 h) was 0%, the “%-release of Hydrocodone” value ([7]; Petrol ether, at boiling point, 1 h) was 0% and the “%-release of Hydrocodone” value ([7]; Petrol ether, at boiling point, 4 h) was 0%. The “%-release of Hydrocodone” value ([7]; Tetrahydrofuran, ambient temperature, 0.5 h) was 0%, the “%-release of Hydrocodone” value ([7]; Tetrahydrofuran, ambient temperature, 1 h) was 0% and the “%-release of Hydrocodone” value ([7]; Tetrahydrofuran, ambient temperature, 4 h) was 0%. For the same compound, the “%-release of Hydrocodone” value ([7]; Tetrahydrofuran, at boiling point, 0.5 h) was 0%, the “%-release of Hydrocodone” value ([7]; Tetrahydrofuran, at boiling point, 1 h) was 0% and the “%-release of Hydrocodone” value ([7]; Tetrahydrofuran, at boiling point, 4 h) was 0%. The “%-release of Hydrocodone” value ([7]; Toluene, ambient temperature, 0.5 h) was 0%, the “%-release of Hydrocodone” value ([7]; Toluene, ambient temperature, 1 h) was 0% and the “%-release of Hydrocodone” value ([7]; Toluene, ambient temperature, 4 h) was 0%. For the same compound, the “%-release of Hydrocodone” value ([7]; Toluene, at boiling point, 0.5 h) was 0%, the “%-release of Hydrocodone” value ([7]; Toluene, at boiling point, 1 h) was 0% and the “%-release of Hydrocodone” value ([7]; Toluene, at boiling point, 4 h) was 0%. The “%-release of Hydrocodone” value ([7]; Water, ambient temperature, 0.5 h) was 0%, the “%-release of Hydrocodone” value ([7]; Water, ambient temperature, 1 h) was 0% and the “%-release of Hydrocodone” value ([7]; Water, ambient temperature, 4 h) was 0%. The “%-release of Hydrocodone” value ([7]; Water, at boiling point, 0.5 h) was 0%, the “%-release of Hydrocodone” value ([7]; Water, at boiling point, 1 h) was 0% and the “%-release of Hydrocodone” value ([7]; Water, at boiling point, 4 h) was 0%. The “%-release of Hydrocodone” value ([7]; Xylene, ambient temperature, 0.5 h) was 0%, the “%-release of Hydrocodone” value ([7]; Xylene, ambient temperature, 1 h) was 0% and the “%-release of Hydrocodone” value ([7]; Xylene, ambient temperature, 4 h) was 0%. The “%-release of Hydrocodone” value ([7]; Xylene, at boiling point, 0.5 h) was 0%, the “%-release of Hydrocodone” value ([7]; Xylene, at boiling point, 1 h) was 0% and the “%-release of Hydrocodone” value ([7]; Xylene, at boiling point, 4 h) was 0%.
